The text below walks through data of US20250353820A1, “ANTIVIRAL PYRAZOLOPYRIDINONE COMPOUNDS” (Novartis AG, priority 2019, published 2025).

The experiment addresses human HSV DNA polymerase UL30 (Human herpesvirus 1 (strain 17) (HHV-1) (Human herpes simplex virus 1), UniProt P04293). Briefly: biochemical. The conditions noted are these: 625 pM HSV polymerase, 20 minutes at room temperature; read-out: HSV-polymerase Biochemical IC50.
`Cn1nc(C(=O)NCc2ccc(C#N)cc2)c2c1C(=O)N(CC1(S(=O)(=O)C(C)(C)C#N)CC1)CC2` [Example 59, N-(4-Cyanobenzyl)-6-((1-((2-cyanopropan-2-yl)sulfonyl)cyclopropyl)methyl)-1-methyl-7-oxo-4,5,6,7-tetrahydro-1H-pyrazolo[3,4-c]pyridine-3-carboxamide]: the IC50 (commonly the midpoint of a concentration-inhibition curve) came to 23 nM.

Regarding `Cn1nc(C(=O)NCc2ccc(C#N)cc2)c2c1C(=O)N(CC1(S(=O)(=O)C(C)(C)CN3CC(F)C3)CC1)CC2` [Example 60, N-(4-Cyanobenzyl)-6-((1-((1-(3-fluoroazetidin-1-yl)-2-methylpropan-2-yl)sulfonyl)cyclopropyl)methyl)-1-methyl-7-oxo-4,5,6,7-tetrahydro-1H-pyrazolo[3,4-c]pyridine-3-carboxamide], the IC50 stood at 45 nM.

Consider `Cn1nc(C(=O)NCc2ccc(C#N)cc2)c2c1C(=O)N(CC1(S(=O)(=O)C(C)(C)CN3CCOCC3)CC1)CC2` [Example 61, N-(4-Cyanobenzyl)-1-methyl-6-((1-((2-methyl-1-morpholinopropan-2-yl)sulfonyl)cyclopropyl)methyl)-7-oxo-4,5,6,7-tetrahydro-1H-pyrazolo[3,4-c]pyridine-3-carboxamide], for which the IC50 came out at 75 nM.

`CO[C@@H]1CCN(CC(C)(C)S(=O)(=O)C2(CN3CCc4c(C(=O)NCc5ccc(C#N)cc5)nn(C)c4C3=O)CC2)C1` [Example 62, (R)-N-(4-cyanobenzyl)-6-((1-((1-(3-methoxypyrrolidin-1-yl)-2-methylpropan-2-yl)sulfonyl)cyclopropyl)methyl)-1-methyl-7-oxo-4,5,6,7-tetrahydro-1H-pyrazolo[3,4-c]pyridine-3-carboxamide]: the IC50 turned out to be 139 nM.

Regarding `Cn1nc(C(=O)NCc2ccc(C#N)cc2)c2c1C(=O)N(CC1(S(=O)(=O)C(C)(C)CN3CC4CC(C3)O4)CC1)CC2` [Example 63, 6-((1-((1-(6-Oxa-3-azabicyclo[3.1.1]heptan-3-yl)-2-methylpropan-2-yl)sulfonyl)cyclopropyl)methyl)-N-(4-cyanobenzyl)-1-methyl-7-oxo-4,5,6,7-tetrahydro-1H-pyrazolo[3,4-c]pyridine-3-carboxamide], the IC50 was found to be 100 nM.

Turning to `Cn1nc(C(=O)NCc2ccc(C#N)cc2)c2c1C(=O)N(CC1(S(=O)(=O)C(C)(C)CN3CC4CC3CO4)CC1)CC2` (centres unmarked) [Example 64, 6-((1-((1-(2-Oxa-5-azabicyclo[2.2.1]heptan-5-yl)-2-methylpropan-2-yl)sulfonyl)cyclopropyl)methyl)-N-(4-cyanobenzyl)-1-methyl-7-oxo-4,5,6,7-tetrahydro-1H-pyrazolo[3,4-c]pyridine-3-carboxamide], the IC50 was determined as 60 nM.

As to `Cn1nc(C(=O)NCc2ccc(C#N)cc2)c2c1C(=O)N(CC1(S(=O)(=O)C(C)(C)CN3CC(O)C3)CC1)CC2` [Example 65, N-(4-Cyanobenzyl)-6-((1-((1-(3-hydroxyazetidin-1-yl)-2-methylpropan-2-yl)sulfonyl)cyclopropyl)methyl)-1-methyl-7-oxo-4,5,6,7-tetrahydro-1H-pyrazolo[3,4-c]pyridine-3-carboxamide], the IC50 was 52 nM.

For the molecule `COC1CN(CC(C)(C)S(=O)(=O)C2(CN3CCc4c(C(=O)NCc5ccc(C#N)cc5)nn(C)c4C3=O)CC2)C1` [Example 66, N-(4-Cyanobenzyl)-6-((1-((1-(3-methoxyazetidin-1-yl)-2-methylpropan-2-yl)sulfonyl)cyclopropyl)methyl)-1-methyl-7-oxo-4,5,6,7-tetrahydro-1H-pyrazolo[3,4-c]pyridine-3-carboxamide], the IC50 is 50 nM.

Turning to `Cn1nc(C(=O)NCc2ccc(C#N)cc2)c2c1C(=O)N(CC1(S(=O)(=O)C(C)(C)CN3CC4(COC4)C3)CC1)CC2` [Example 67, N-(4-Cyanobenzyl)-1-methyl-6-((1-((2-methyl-1-(2-oxa-6-azaspiro[3.3]heptan-6-yl)propan-2-yl)sulfonyl)cyclopropyl)methyl)-7-oxo-4,5,6,7-tetrahydro-1H-pyrazolo[3,4-c]pyridine-3-carboxamide], the IC50 was 48 nM.

Take `Cn1nc(C(=O)NCc2ccc(C#N)cc2)c2c1C(=O)N(CC1(S(=O)(=O)C(C)(C)CN3CCC(O)C3)CC1)CC2` (centres unmarked) [Example 68, N-(4-Cyanobenzyl)-6-((1-((1-(3-hydroxypyrrolidin-1-yl)-2-methylpropan-2-yl)sulfonyl)cyclopropyl)methyl)-1-methyl-7-oxo-4,5,6,7-tetrahydro-1H-pyrazolo[3,4-c]pyridine-3-carboxamide]: the IC50 is 21 nM.

With `Cn1nc(C(=O)NCc2ccc(C#N)cc2)c2c1C(=O)N(CC1(S(=O)(=O)C(C)(C)CNCCO)CC1)CC2` [Example 69, N-(4-Cyanobenzyl)-6-((1-((1-((2-hydroxyethyl)amino)-2-methylpropan-2-yl)sulfonyl)cyclopropyl)methyl)-1-methyl-7-oxo-4,5,6,7-tetrahydro-1H-pyrazolo[3,4-c]pyridine-3-carboxamide], the IC50 was 40 nM.

In the case of `Cn1nc(C(=O)NCc2ccc(C#N)cc2)c2c1C(=O)N(CC1(S(=O)(=O)C(C)(C)CN)CC1)CC2` [Example 70, 6-((1-((1-Amino-2-methylpropan-2-yl)sulfonyl)cyclopropyl)methyl)-N-(4-cyanobenzyl)-1-methyl-7-oxo-4,5,6,7-tetrahydro-1H-pyrazolo[3,4-c]pyridine-3-carboxamide], the 50% inhibitory concentration (IC50) amounted to 37 nM.

Take `COC(=O)NCC(C)(C)S(=O)(=O)C1(CN2CCc3c(C(=O)NCc4ccc(C#N)cc4)nn(C)c3C2=O)CC1` [Example 73, Methyl (2-((1-((3-((4-cyanobenzyl)carbamoyl)-1-methyl-7-oxo-1,4,5,7-tetrahydro-6H-pyrazolo[3,4-c]pyridin-6-yl)methyl)cyclopropyl)sulfonyl)-2-methylpropyl)carbamate]: the IC50 worked out at 40 nM.

As to `Cn1nc(C(=O)NCc2ccc(C#N)cc2)c2c1C(=O)N(CC1(S(=O)(=O)C(C)(C)CNC(=O)CN)CC1)CC2` [Example 74, 6-((1-((1-(2-Aminoacetamido)-2-methylpropan-2-yl)sulfonyl)cyclopropyl)methyl)-N-(4-cyanobenzyl)-1-methyl-7-oxo-4,5,6,7-tetrahydro-1H-pyrazolo[3,4-c]pyridine-3-carboxamide], the IC50 amounted to 65 nM.

For the molecule `C[C@@H](N)C(=O)NCC(C)(C)S(=O)(=O)C1(CN2CCc3c(C(=O)NCc4ccc(C#N)cc4)nn(C)c3C2=O)CC1` [Example 75, (R)-6-((1-((1-(2-Aminopropanamido)-2-methylpropan-2-yl)sulfonyl)cyclopropyl)methyl)-N-(4-cyanobenzyl)-1-methyl-7-oxo-4,5,6,7-tetrahydro-1H-pyrazolo[3,4-c]pyridine-3-carboxamide], the IC50 turned out to be 133 nM.

Consider `C[C@H](N)C(=O)NCC(C)(C)S(=O)(=O)C1(CN2CCc3c(C(=O)NCc4ccc(C#N)cc4)nn(C)c3C2=O)CC1` [Example 76, (S)-6-((1-((1-(2-Aminopropanamido)-2-methylpropan-2-yl)sulfonyl)cyclopropyl)methyl)-N-(4-cyanobenzyl)-1-methyl-7-oxo-4,5,6,7-tetrahydro-1H-pyrazolo[3,4-c]pyridine-3-carboxamide], for which the IC50 came out at 123 nM.

Turning to `Cn1nc(C(=O)NCc2ccc(C#N)cc2)c2c1C(=O)N(CC1(S(=O)(=O)C(C)(C)CNC(=O)C(C)(C)N)CC1)CC2` [Example 77, 6-((1-((1-(2-Amino-2-methylpropanamido)-2-methylpropan-2-yl)sulfonyl)cyclopropyl)methyl)-N-(4-cyanobenzyl)-1-methyl-7-oxo-4,5,6,7-tetrahydro-1H-pyrazolo[3,4-c]pyridine-3-carboxamide], the IC50 is 142 nM.

Turning to `CN(C)CC(=O)NCC(C)(C)S(=O)(=O)C1(CN2CCc3c(C(=O)NCc4ccc(C#N)cc4)nn(C)c3C2=O)CC1` [Example 78, N-(4-Cyanobenzyl)-6-((1-((1-(2-(dimethylamino)acetamido)-2-methylpropan-2-yl)sulfonyl)cyclopropyl)methyl)-1-methyl-7-oxo-4,5,6,7-tetrahydro-1H-pyrazolo[3,4-c]pyridine-3-carboxamide], the IC50 worked out at 206 nM.

For the molecule `Cn1nc(C(=O)NCc2ccc(C#N)cc2)c2c1C(=O)N(CC1(S(=O)(=O)C(C)(C)COC(F)(F)CO)CC1)CC2` [Example 84, N-(4-Cyanobenzyl)-6-((1-((1-(1,1-difluoro-2-hydroxyethoxy)-2-methylpropan-2-yl)sulfonyl)cyclopropyl)methyl)-1-methyl-7-oxo-4,5,6,7-tetrahydro-1H-pyrazolo[3,4-c]pyridine-3-carboxamide], the IC50 is 45 nM.

In the case of `Cn1nc(C(=O)NCc2ccc(C#N)cc2)c2c1C(=O)N(CC1(S(=O)(=O)C(C)(C)COC(F)(F)CN)CC1)CC2` [Example 85, 6-((1-((1-(2-Amino-1,1-difluoroethoxy)-2-methylpropan-2-yl)sulfonyl)cyclopropyl)methyl)-N-(4-cyanobenzyl)-1-methyl-7-oxo-4,5,6,7-tetrahydro-1H-pyrazolo[3,4-c]pyridine-3-carboxamide], the IC50 was 49 nM.

For `Cn1nc(C(=O)NCc2ccc(C#N)cc2)c2c1C(=O)N(CC1(S(=O)(=O)C(C)(C)COCC(C)(C)O)CC1)CC2` [Example 86, N-(4-Cyanobenzyl)-6-((1-((1-(2-hydroxy-2-methylpropoxy)-2-methylpropan-2-yl)sulfonyl)cyclopropyl)methyl)-1-methyl-7-oxo-4,5,6,7-tetrahydro-1H-pyrazolo[3,4-c]pyridine-3-carboxamide], the IC50 came to 159 nM.

As for `Cn1nc(C(=O)NCc2ccc(Cl)cc2)c2c1C(=O)N(CC1(S(=O)(=O)C(C)(C)COCCO)CC1)CC2` [Example 88, N-(4-Chlorobenzyl)-6-((1-((1-(2-hydroxyethoxy)-2-methylpropan-2-yl)sulfonyl)cyclopropyl)methyl)-1-methyl-7-oxo-4,5,6,7-tetrahydro-1H-pyrazolo[3,4-c]pyridine-3-carboxamide], the IC50 is 39 nM.

On to `Cn1nc(C(=O)NCc2ccc(C#N)cc2)c2c1C(=O)N(CC1(S(=O)(=O)C3(COCCN)CC3)CC1)CC2` [Example 96, 6-((1-((1-((2-aminoethoxy)methyl)cyclopropyl)sulfonyl)cyclopropyl)methyl)-N-(4-cyanobenzyl)-1-methyl-7-oxo-4,5,6,7-tetrahydro-1H-pyrazolo[3,4-c]pyridine-3-carboxamide], for which the IC50 came out at 20 nM.
